Format in all cases: cell-based
One data set has as its system ASPC1. In words: MTS cell viability assay, ASPC1. Particulars: Homo sapiens, Table 7, 72 hours, read-out: IC50 against ASPC1. The protocol:
(§1) Primary viability screening: (1) the synthesized compounds 3a to 13d were respectively dissolved in DMSO to prepare a 40 μg/mL cannabicyclol and cannabicyclol derivative solutions.
(§2) (2) A control group: a 200 μL DMSO solvent.
(§3) (3) The solutions of compounds 3a to 13d were diluted in a twofold gradient to obtain cannabicyclol and cannabicyclol derivative solutions at concentrations of 40 μg/mL, 20 μg/mL, 10 μg/mL, 5 μg/mL, 2.5 μg/mL, 1.25 μg/mL, and 0.625 μg/mL, and 0.3125 μg/mL, respectively.
(§4) (4) Three glioblastoma stem cells (GSC-3, GSC-12, and GSC-18), three pancreatic cancer cell-derived stem cells (PANC-1-CSC, BXPC-3-CSC, and ASPC1-CSC), three liver cancer cell-derived stem cells (HepG2-CSC, MHCC97H-CSC, and SMMC7721-CSC), HEK-293T cells, 16 tumor cells (U251, U87, T98G, PANC1, BXPC3, ASPC1, HepG2, MHCC97H, SMMC7721, PC3, SKOV3, MDA-MB231, A549, HCT116, HEC-1B, MKN28), and differentiated glioblastoma stem cells (GSC-3diff and GSC-12diff) derived from GSC-3 and GSC-12 (all of the cells were provided by the Laboratory of Tumor Animal Model Preparation and Application Research, West China Hospital, Sichuan University) were inoculated into a 96-well plate at a concentration of 2×10^4 cells/well, and 100 μL of culture medium was then added to each well; […]
(§5) (10) The absorbance value at 490 nm was measured on an enzyme labeling apparatus, and the IC50 value was calculated.
On the technique in general: Formazan colour is commonly taken as a measure of viable cells.

The next data set relates to GSC-18. In words: MTS cell viability assay, GSC-18. As to conditions: GSC18; Table 6, tumor stem cell, 72 hours; read-out: IC50 against GSC-18. How it is done:
as §1, §2, §3, §4, §5

The test system of data set [1] is 9 types of cancer stem cells. Briefly: MTS cell viability assay, summary over 9 types of cancer stem cells. Particulars: FIG. 3, CBL solution at different concentrations. The protocol:
as §1, §2, §3, §4, §5

The next data set relates to GSC-3 (3#-GSC). In words: MTS cell viability assay, glioblastoma stem cells GSC-3 (3#-GSC). How it is done:
as §1, §2, §3
(4) Three glioblastoma stem cells (GSC-3, GSC-12, and GSC-18), three pancreatic cancer cell-derived stem cells (PANC-1-CSC, BXPC-3-CSC, and ASPC1-CSC), three liver cancer cell-derived stem cells (HepG2-CSC, MHCC97H-CSC, and SMMC7721-CSC), HEK-293T cells, 16 tumor cells (U251, U87, T98G, PANC1, BXPC3, ASPC1, HepG2, MHCC97H, SMMC7721, PC3, SKOV3, MDA-MB231, A549, HCT116, HEC-1B, MKN28), and differentiated glioblastoma stem cells (GSC-3diff and GSC-12diff) derived from GSC-3 and GSC-12 (all of the cells were provided by the Laboratory of Tumor Animal Model Preparation and Application Research, West China Hospital, Sichuan University) were inoculated into a 96-well plate at a concentration of 2×10^4 cells/well, and 100 μL of culture medium was then added to each well;
(5) 2) HEK-293T, GSC-3diff, GSC-12diff, and the 16 tumor cells were added with DMEM, 10% FBS, and 1% double antibody culture medium. Cancer stem cells (CSCs) were added with serum-free stem cell medium consisting of DMEM/F12, EGF (20 ng/mL), bFGF (20 ng/mL), B27 (1×), and 1% double antibody culture medium.
(6) Inoculated cells were put into a cell culture incubator for 24 hours, and after the cells were well adhered to the wall, the culture medium in the 96-well plate was discarded.
(7) 200 μL cannabicyclol and cannabicyclol derivatives solutions at different concentrations were added to the cultured cells.
(8) The experiment was set up with 3 replicates.
(9) The 96-well plate was placed in a cell culture incubator, and incubation was continued at 37° C. and 5% CO2 for 72 hours. Then, 100 μL of cannabicyclol and cannabicyclol derivative solution per well was discarded (100 μL of DMSO solvent was discarded for the control group), and 20 μL of LMTS (CellTiter AQueous Non-Radioactive Cell Proliferation Assay, #G3581) was mixed and continued to be placed in the cell incubator for 2 hours of incubation.
as §5

The test system of another data set is T98G. In words: MTS cell viability assay, T98G. As to conditions: Homo sapiens, Table 7, 72 hours, read-out: IC50 against T98G. How it is done: as §1, §2, §3, §4, §5
The next data set has as its system HepG2-CSC. Briefly: MTS cell viability assay, HepG2-CSC. As to conditions: Table 6, tumor stem cell, 72 hours; read-out: IC50 against HepG2-CSC. The protocol: as §1, §2, §3, §4, §5
The subject of another data set is GSC-12diff. In words: MTS cell viability assay, differentiated glioblastoma stem cells GSC-12diff. As to conditions: Table 7, 72 hours, read-out: IC50 against GSC-12diff. The protocol:
as §1, §2, §3, §4, §5

For data set [2], the system named is glioblastoma cell line U251. Briefly: Soft agar colony (clone) formation, U251. As to conditions: crystal violet, FIG. 4, compound 3a 0, 5 and 5 [sic] μg/mL. The protocol: […] of low-melting-point agarose was dissolved in 12.5 mL of ddH2O to prepare a 3.2% low-melting-point agarose gel. The low-melting-point agarose gel was sterilized by autoclaving at 121° C. and 0.12 MPa for 20 minutes. After sterilization, the low-melting-point agarose gel was maintained at 60° C. in a drying oven for further use.
1.75 mL of 3.2% sterile low-melting-point agarose gel was taken, 5.25 mL of the corresponding complete medium was added, and the two were mixed thoroughly using a pipette to prepare a base gel at a concentration of 0.8%.
1 mL of the base gel was added to each well of a 6-well plate, ensuring that the base gel evenly covered the bottom of each well. The plate was placed at 4° C. for 5 minutes to allow the gel to solidify. After the gel had fully solidified, the plate was warmed at 37° C. for 5 minutes.
6 cells/cell lines (U251, SMMC7721, GSC-3, GSC-12, SMMC7721-CSC, and HepG2-CSC) were individually digested with 1× trypsin for 3 minutes. The corresponding complete culture medium (same as in the application example 1) was added to terminate the digestion. Cells were centrifuged at 1000 rpm for 3 minutes, and the cells were collected and counted. A total of 5×10^3 cells were added to each well, each group was set up with three replicates. […]

Another data set has as its system MKN28. In words: MTS cell viability assay, MKN28. Particulars: Homo sapiens, MKN-28; Table 7, 72 hours; read-out: IC50 against MKN28. The protocol: as §1, §2, §3, §4, §5

In brackets after ≈: the same amount, converted by molar mass.

The results in this text go back to US20250353825A1, “CANNABICYCLOL DERIVATIVES AND PREPARATION METHODS THEREOF” (priority 2023, published 2025).

The term IC50 denotes the concentration needed to halve the response being measured.

For the compound `CCCCCc1cc(O)c2c(c1)OC1(C)CCC3C1C2C3(C)C` (centres unmarked) [Compound 3a, cannabicyclol], the IC50 in the data set with ASPC1 was above 40 µg/mL; in the data set on GSC-18, 6.4 µg/mL (≈ 20.4 µM); in the data set with GSC-3 (3#-GSC) (GSC-3, 72 h, read-out: IC50 against GSC-3), 3.85 µg/mL (≈ 12.2 µM); in the data set on T98G it was above 40 µg/mL; with HepG2-CSC, 2.37 µg/mL (≈ 7.54 µM); with GSC-12diff, 29.6 µg/mL (≈ 94.3 µM). The IC50 in the data set with MKN28 was above 40 µg/mL. The “cell viability of 9 types of cancer stem cells at different concentrations” value in [1] is given as “decreased with increasing concentrations”. Besides, the “selective anti-glioma stem cell viability” value in the data set on GSC-3 (3#-GSC) (judged in words from preliminary viability screening against 3#-GSC, 293T and U251) was “a certain degree of selective anti-glioma stem cell viability”. Further, the “Cell viability in 3#-GSC (%)” value in the data set on GSC-3 (3#-GSC) (primary viability screening, 72 hours, MTS, test concentration not stated) worked out at 20%. Moreover, in [2], the “colony formation of U251” value is recorded as “significantly inhibited”.
